Source: patent US10448639B2, “Fungicidal pyrazoles” (FMC CORPORATION, priority 2009, dated 2019)
Where two headings read alike, the source gives them in different places. Marks after values point to notes of the source that are not given here.

Columns and labels:
[1] = tested on: Septoria nodorum; experiment: Test F: Septoria glume blotch, preventive spray on wheat seedlings, visual disease rating; conditions: for Test F disease control rating / Test F rating (% disease control): 100 = 100% disease control; for Test F disease control rating: 0 = no disease control relative to controls; for pest or weed control at 200 µg/mL: Parastagonospora nodorum, in Triticum aestivum, 192 h
[2] = tested on: Septoria tritici; experiment: Test G: wheat leaf blotch, preventive spray on wheat seedlings, visual disease rating; conditions: for Test G disease control rating: sprayed the day before inoculation, 0 = no disease control relative to controls; for Test G disease control rating / Test G rating (% disease control): 100 = 100% disease control; for pest or weed control at 200 µg/mL: Zymoseptoria tritici, in Triticum aestivum, 504 h
Description: General protocol for preparing test suspensions for Tests A-J: the test compounds were first dissolved in acetone in an amount equal to 3% of the final volume and then suspended at the desired concentration (in ppm) in acetone and purified water (50/50 mix by volume) containing 250 ppm of the surfactant Trem® 014 (polyhydric alcohol esters). The resulting test suspensions were then used in Tests A-J. Spraying a 200 ppm test suspension to the point of run-off on the test plants was the equivalent of a rate of 500 g/ha. Unless otherwise indicated, the rating values indicate a 200 ppm test suspension was used. (An asterisk “*” next to the rating value indicates a 40 ppm test suspension was used.)
The test suspension was sprayed to the point of run-off on wheat seedlings. The following day the seedlings were inoculated with a spore suspension of Septoria tritici (the causal agent of wheat leaf blotch) and incubated in saturated atmosphere at 24° C. for 48 h. and then the seedlings were moved to a growth chamber at 20° C. for 19 additional days, after which time visual disease ratings were made.

[3] = tested on: Botrytis cinerea; experiment: Test B: tomato Botrytis, preventive spray on tomato seedlings, visual disease rating; conditions: for Test B disease control rating / Test B rating (% disease control): 100 = 100% disease control; for Test B disease control rating: 0 = no disease control relative to controls; for pest or weed control at 200 µg/mL: Botrytis cinerea, in Solanum lycopersicum, 120 h
[4] = tested on: Puccinia recondita f. sp. tritici; experiment: Test H: wheat leaf rust, curative spray on inoculated wheat seedlings, visual disease rating; conditions: for Test H disease control rating: sprayed after inoculation, 0 = no disease control relative to controls; for Test H disease control rating / Test H rating (% disease control): 100 = 100% disease control; for pest or weed control at 200 µg/mL: 144 h
[5] = tested on: Alternaria solani; experiment: Test C: tomato early blight, preventive spray on tomato seedlings, visual disease rating; conditions: for Test C disease control rating / Test C rating (% disease control): 100 = 100% disease control; for Test C disease control rating: 0 = no disease control relative to controls; for pest or weed control at 200 µg/mL: Alternaria solani, in Solanum lycopersicum, 168 h
[6] = tested on: Erysiphe graminis f sp. tritici; experiment: Test J: wheat powdery mildew, preventive spray on wheat seedlings, visual disease rating; conditions: for Test J disease control rating: sprayed the day before inoculation, 0 = no disease control relative to controls; for Test J disease control rating / Test J rating (% disease control): 100 = 100% disease control; for pest or weed control at 200 µg/mL: Blumeria graminis, in Triticum aestivum, 192 h
[7] = tested on: Puccinia recondita f. sp. tritici; experiment: Test I: wheat leaf rust, preventive spray on wheat seedlings, visual disease rating; conditions: for Test I disease control rating: sprayed the day before inoculation, 0 = no disease control relative to controls; for Test I disease control rating / Test I rating (% disease control): 100 = 100% disease control; for pest or weed control at 200 µg/mL: 192 h
[8] = read-out: Test F rating (% disease control)
[9] = read-out: Test G rating (% disease control)
[10] = read-out: Test B rating (% disease control)
[11] = read-out: Test H rating (% disease control)
[12] = read-out: Test C rating (% disease control)
[13] = read-out: Test J rating (% disease control)
[14] = read-out: Test I rating (% disease control)
[15] = Septoria glume blotch, 0 = no control relative to controls
[16] = wheat leaf blotch, 0 = no control relative to controls
[17] = tomato Botrytis, 0 = no control relative to controls
[18] = wheat leaf rust, curative, 0 = no control relative to controls
[19] = tomato early blight, 0 = no control relative to controls
[20] = wheat powdery mildew, 0 = no control relative to controls
[21] = wheat leaf rust, preventive, 0 = no control relative to controls
[22] = Septoria glume blotch on wheat, preventive spray, 0 = no control
[23] = wheat leaf blotch, preventive spray, 0 = no control
[24] = tomato Botrytis, preventive spray, 0 = no control
[25] = wheat leaf rust, curative spray, 0 = no control
[26] = tomato early blight, preventive spray, 0 = no control
[27] = wheat powdery mildew, preventive spray, 0 = no control
[28] = wheat leaf rust, preventive spray, 0 = no control

Structure (SMILES)	Test F rating (% disease control) [1, 15]	Test G rating (% disease control) [2, 16]	Test B rating (% disease control) [3, 17]	Test H rating (% disease control) [4, 18]	Test C rating (% disease control) [5, 19]	Test J rating (% disease control) [6, 20]	Test I rating (% disease control) [7, 21]	Test F rating (% disease control) [1, 22]	Test G rating (% disease control) [2, 23]	Test B rating (% disease control) [3, 24]	Test H rating (% disease control) [4, 25]	Test C rating (% disease control) [5, 26]	Test J rating (% disease control) [6, 27]	Test I rating (% disease control) [7, 28]	other results
Cc1nn(C)c(Oc2c(F)cc(C#N)cc2F)c1-c1cc(F)ccc1F [compound 329]	–	–	–	–	–	–	–	–	–	–	–	–	–	–	Test F disease control rating ([1]; Septoria glume blotch on wheat): 69%; Test G disease control rating ([2]; wheat leaf blotch): 100%; Test B disease control rating ([3]; tomato Botrytis): 100%; Test H disease control rating ([4]; wheat leaf rust): 0%; Test C disease control rating ([5]; tomato early blight): 99%; Test J disease control rating ([6]; wheat powdery mildew): 100%; Test I disease control rating ([7]; wheat leaf rust): 100%
COc1cc(F)c(-c2c(C)nn(C)c2Nc2ccc(Cl)cc2)c(F)c1 [Compound 22, N-(4-chlorophenyl)-4-(2,6-difluoro-4-methoxyphenyl)-1,3-dimethyl-1H-pyrazol-5-amine]	–	–	–	–	–	–	–	–	–	–	–	–	–	–	pest or weed control at 200 µg/mL [1, 8]: 90%; pest or weed control at 200 µg/mL [2, 9]: 94%; pest or weed control at 200 µg/mL [3, 10]: 90%; pest or weed control at 200 µg/mL [4, 11]: 9%; pest or weed control at 200 µg/mL [5, 12]: 85%; pest or weed control at 200 µg/mL [6, 13]: 100%; pest or weed control at 200 µg/mL [7, 14]: 94%
COc1cc(Oc2c(-c3c(F)cc(F)cc3F)c(C)nn2C)ccc1[N+](=O)[O-] [compound 151]	0%	96%	99%	0%	9%	64%	54%	–	–	–	–	–	–	–	–
Cc1nn(C)c(Nc2c(F)cccc2F)c1-c1ccc(F)cc1F [compound 256]	96%	100%	99%	0%	99%	100%	99%	–	–	–	–	–	–	–	–
Cc1nn(C)c(Nc2ccc(Cl)cc2F)c1-c1c(F)cc(C#N)cc1F [compound 143]	–	–	–	–	–	–	–	100%	100%	99%	63%	99%	100%	100%	–
Cc1nn(C)c(Nc2ccc(F)cc2F)c1-c1c(F)cc(O)cc1F [compound 103]	–	–	–	–	–	–	–	0%	95%	100%	0%	64%	0%	91%	–
Cc1nn(C)c(Nc2ncc(Cl)cc2Cl)c1-c1c(F)cccc1Cl [compound 252]	0%	100%	100%	0%	97%	100%	100%	–	–	–	–	–	–	–	–
Cc1nn(C)c(Nc2cc(Cl)ccc2Cl)c1-c1ccc(F)cc1F [compound 245]	0%	97%	90%	0%	0%	93%	68%	–	–	–	–	–	–	–	–
COc1cc(F)c(-c2c(C)nn(C)c2Nc2ccc(Cl)nc2)c(F)c1 [compound 34]	–	–	–	–	–	–	–	–	–	–	–	–	–	–	Test F rating (% disease control), value marked * ([1]; Septoria glume blotch, preventive spray, rating marked with asterisk (different test condition, key not given)): 0* %; Test G rating (% disease control), value marked * ([2]; wheat leaf blotch, preventive spray, rating marked with asterisk (different test condition, key not given)): 96* %; Test B rating (% disease control), value marked * ([3]; tomato Botrytis, preventive spray, rating marked with asterisk (different test condition, key not given)): 100* %; Test H rating (% disease control), value marked * ([4]; wheat leaf rust, curative spray, rating marked with asterisk (different test condition, key not given)): 0* %; Test C rating (% disease control), value marked * ([5]; tomato early blight, preventive spray, rating marked with asterisk (different test condition, key not given)): 97* %; Test J rating (% disease control), value marked * ([6]; wheat powdery mildew, preventive spray, rating marked with asterisk (different test condition, key not given)): 0* %; Test I rating (% disease control), value marked * ([7]; wheat leaf rust, preventive spray, rating marked with asterisk (different test condition, key not given)): 76* %
Cc1nn(C)c(Oc2cc(F)c(C#N)cc2F)c1-c1c(F)cc(F)cc1F [compound 99]	–	–	–	–	–	–	–	100%	99%	100%	40%	99%	100%	100%	–
Cc1nn(C)c(Nc2cccc(F)c2F)c1-c1c(F)cccc1F [compound 198]	0%	100%	97%	0%	68%	97%	94%	–	–	–	–	–	–	–	–
COc1ccc(Nc2c(-c3ccc(Cl)cc3Cl)c(C)nn2C)cc1 [compound 355]	–	–	–	–	–	–	–	–	–	–	–	–	–	–	Test F disease control rating ([1]; Septoria glume blotch on wheat): 0%; Test G disease control rating ([2]; wheat leaf blotch): 100%; Test B disease control rating ([3]; tomato Botrytis): 99%; Test H disease control rating ([4]; wheat leaf rust): 3%; Test C disease control rating ([5]; tomato early blight): 0%; Test J disease control rating ([6]; wheat powdery mildew): 0%; Test I disease control rating ([7]; wheat leaf rust): 91%
COc1cc(F)c(Nc2c(-c3c(F)cc(OC)cc3F)c(C)nn2C)c(F)c1 [compound 83]	–	–	–	–	–	–	–	89%	99%	100%	99%	100%	94%	96%	–
COc1cccc(Oc2c(-c3c(F)cc(OC)cc3F)c(C)nn2C)c1 [compound 221]	82%	100%	98%	17%	94%	100%	99%	–	–	–	–	–	–	–	–
Cc1nn(C)c(Oc2ccc(C#N)cc2F)c1-c1c(F)cccc1F [Compound 361, 4-[[4-(2,6-difluorophenyl)-1,3-dimethyl-1H-pyrazol-5-yl]oxy]-3-fluorobenzonitrile]	–	–	–	–	–	–	–	–	–	–	–	–	–	–	pest or weed control at 200 µg/mL ([1]; read-out: Test F disease control rating): 0%; pest or weed control at 200 µg/mL ([2]; read-out: Test G disease control rating): 100%; pest or weed control at 200 µg/mL ([3]; read-out: Test B disease control rating): 100%; pest or weed control at 200 µg/mL ([4]; read-out: Test H disease control rating): 0%; pest or weed control at 200 µg/mL ([5]; read-out: Test C disease control rating): 90%; pest or weed control at 200 µg/mL ([6]; read-out: Test J disease control rating): 100%; pest or weed control at 200 µg/mL ([7]; read-out: Test I disease control rating): 100%
COc1cc(OC)cc(-c2c(C)nn(C)c2Oc2ccc(Cl)cc2)c1 [compound 16]	–	–	–	–	–	–	–	0%	47%	60%	48%	0%	0%	28%	–
Cc1nn(C)c(Oc2ccc([N+](=O)[O-])c(F)c2)c1-c1c(F)cc(F)cc1F [compound 131]	–	–	–	–	–	–	–	0%	98%	99%	0%	0%	94%	86%	–
COc1cc(F)c(-c2c(C)nn(C)c2Nc2c(F)cc(F)cc2F)c(F)c1 [Compound 24, 4-(2,6-difluoro-4-methoxyphenyl)-1,3-dimethyl-N-(2,4,6-trifluorophenyl)-1H-pyrazol-5-amine]	–	–	–	–	–	–	–	–	–	–	–	–	–	–	pest or weed control at 200 µg/mL [1, 8]: 0%; pest or weed control at 200 µg/mL [2, 9]: 94%; pest or weed control at 200 µg/mL [3, 10]: 98%; pest or weed control at 200 µg/mL [4, 11]: 9%; pest or weed control at 200 µg/mL [5, 12]: 100%; pest or weed control at 200 µg/mL [6, 13]: 100%; pest or weed control at 200 µg/mL [7, 14]: 97%
Cc1ccc(Oc2c(-c3c(F)cc(F)cc3F)c(C)nn2C)cc1F [compound 187]	0%	20%	33%	0%	0%	13%	9%	–	–	–	–	–	–	–	–
